Consider 27 compounds from patent publication US20240101563A1, “NOVEL COMPOUNDS” (AC Immune SA, priority 2022, published 2024).

The structures appear in SMILES notation. Structures can show the parent of a compound that is named as a salt.

For assay [1], the system named is NLRP3 inflammasome pathway. In words: NLRP3 inflammasome pathway activation assay, MSU stimulation, IL-1β HTRF. The class given is cell-based. Particulars: MSU 200 μg/mL for 3 h, IL-1β release, read-out: IC50 Human monocyte-like cells MSU. The method, then:
(§1) The following assays were used to determine the inhibitory activity of test compounds on the NLRP3 inflammasome pathway using common stimuli Nigericin (Invivogen) or monosodium urate crystals (MSU) (Invivogen).
(§2) Human monocyte-like cells were cultured in RPMI-1640 Glutamax medium supplemented with 10% heat inactivated FBS (Fetal Bovine Serum) and 50 U/mL penicillin-streptomycin (Life Technologies).
(§3) Human monocyte-like cells were seeded at 25000 per well in a 384-well plate and were differentiated overnight into macrophages with 10 ng/mL PMA (Phorbol Myristate Acetate). The following day, medium containing 10 ng/mL LPS (Lipopolysaccharide) was added. After 3 hours of LPS priming, concentrations of test compound in the range from […] were added 30 min prior to NLRP3 inflammasome pathway stimulation with Nigericin 3.75 μM or MSU 200 μg/mL for 3 h.
(§4) For IL-1p quantification, supernatants were analyzed using HTRF kit according to the manufacturer's instructions (Cisbio 62HIL1BPEH). Briefly, in a 384-well ProxiPlate™ microplate, 8 μl of sample was mixed, with 5 μl of Anti-IL1β Cryptate antibody (40×) and Anti-IL1β XL antibody (40×). Then, incubated overnight at RT. Reading was done using an EnVision Reader (PerkinElmer).
(§5) IC50 (concentration corresponding to 50% inhibition) were determined using GraphPad Prism 9.
A general note: In TR-FRET formats the signal depends on donor and acceptor labels being close together.

The subject of assay [2] is NLRP3 inflammasome pathway. As to the kind of experiment: NLRP3 inflammasome pathway activation assay, Nigericin stimulation, IL-1β HTRF. Particulars: Homo sapiens, 3 h, Table 7; PMA-differentiated, LPS-primed cells; Nigericin 3.75 μM for 3 h; IL-1β release; read-out: IC50 Human monocyte-like cells Nigericin. The class given is cell-based. The method, then:
as §1, §2, §3, §4, §5

Setting [3] is: Homo sapiens, 3 h, Table 7, PMA-differentiated, LPS-primed cells.
Setting [4] is: Table 7, PMA-differentiated, LPS-primed cells.

The IC50 is the concentration needed to halve the response being measured.

For the compound `COc1ccc2c(n1)nc(-c1c(C)cc(Cl)cc1O)n2C` [Example 29, 5-chloro-2-(5-methoxy-1-methyl-1H-imidazo[4,5-b]pyridin-2-yl)-3-methylphenol], the figures for the IC50 in assay [1] (setting [3]) and in assay [2] were < 100 nM and 100 to 1000 nM, respectively.

As to `COc1ccc2c(n1)nc(-c1ccc(C(F)(F)F)cc1O)n2C` [Example 24, 2-(5-methoxy-1-methyl-1H-imidazo[4,5-b]pyridin-2-yl)-5-(trifluoromethyl)phenol], the figures for the 50% inhibitory concentration (IC50) in assay [1] (setting [3]) and in assay [2] were 100 to 1000 nM and < 100 nM, respectively.

For the compound `COc1ccc2c(n1)nc(-c1c(C)cc(C(F)(F)F)cc1O)n2C` [Example 23], the values for the IC50 in assay [1] (setting [3]) and in assay [2] were < 100 nM and 100 to 1000 nM, respectively.

For `CCn1c(-c2ccc(C(F)(F)F)cc2O)nc2nc(NC3CCN(C)C3)ccc21` (single isomer, unassigned) [Example 9, 2-(1-ethyl-5-((1-methylpyrrolidin-3-yl)amino)-1H-imidazo[4,5-b]pyridin-2-yl)-5-(trifluoromethyl)phenol], the IC50 in assay [1] (setting [3]) was < 100 nM; in assay [2], 100 to 1000 nM.

On to `Cc1cc(C(F)(F)F)cc(O)c1-c1nc2nc(NCC(C)(C)O)ccc2n1C` [Example 6, 2-(5-((2-hydroxy-2-methylpropyl)amino)-1-methyl-1H-imidazo[4,5-b]pyridin-2-yl)-3-methyl-5-(trifluoromethyl)phenol], for which, in assay [1] (setting [3]), the IC50 was > 1000 nM.

Turning to `Cc1cc(Cl)cc(O)c1-c1nc2nc(N3CCC(C)(O)C3)cnc2n1C` (single isomer, unassigned) [Example 86B], the IC50 in assay [1] (setting [4]) is < 100 nM.

`CN1CC[C@@H](Nc2ccc3c(n2)nc(-c2ccc(C(F)(F)F)cc2O)n3C)C1` (single isomer, unassigned) [Example 19, 2-(1-methyl-5-((1-methylpyrrolidin-3-yl)amino)-1H-imidazo[4,5-b]pyridin-2-yl)-5-(trifluoromethyl)phenol]: the IC50 in assay [1] (setting [3]) is < 100 nM.

For `CCn1c(-c2ccc(C(F)(F)F)cc2O)nc2nc(NC)ccc21` [Example 14, 2-(1-ethyl-5-(methylamino)-1H-imidazo[4,5-b]pyridin-2-yl)-5-(trifluoromethyl)phenol], the IC50 in assay [1] (setting [3]) was 100 to 1000 nM.

Take `Cc1cc(Cl)cc(O)c1-c1nc2nc(N3CCC(C)(O)CC3)cnc2n1C` [Example 80, 1-[2-(4-chloro-2-hydroxy-6-methyl-phenyl)-1-methyl-imidazo[4,5-b]pyrazin-5-yl]-4-methyl-piperidin-4-ol]: the IC50 in assay [1] (setting [3]) is < 100 nM.

Take `Cc1cc(Cl)cc(O)c1-c1nc2nc(N(C)[C@@H]3CCN(C)C3)cnc2n1C` [Example 81, 5-chloro-3-methyl-2-[1-methyl-5-[methyl-[(3R)-1-methylpyrrolidin-3-yl]amino]imidazo-[4,5-b]pyrazin-2-yl]phenol]: the IC50 in assay [1] (setting [3]) is < 100 nM.

For `Cc1cc(C(F)(F)F)cc(O)c1-c1nc2nc(N3CC(N(C)C)C3)cnc2n1C` [Example 71, 2-(5-(3-(dimethylamino)azetidin-1-yl)-1-methyl-1H-imidazo[4,5-b]pyrazin-2-yl)-3-methyl-5-(trifluoromethyl)phenol], the IC50 in assay [1] (setting [3]) lay in the range of 100 to 1000 nM.

For the compound `Cc1cc(Cl)cc(O)c1-c1nc2nc(N3CCC(O)C3)cnc2n1C` (single isomer, unassigned) [Example 85B], in assay [1] (setting [4]), the IC50 was < 100 nM.

As for `COc1cnc2c(n1)nc(-c1c(C)cc(C(F)(F)F)cc1O)n2C` [Example 56, 2-(5-methoxy-1-methyl-1H-imidazo[4,5-b]pyrazin-2-yl)-3-methyl-5-(trifluoromethyl)phenol], in assay [1] (setting [3]), the IC50 is < 100 nM.

On to `COc1nc2nc(-c3ccc(C(F)(F)F)cc3O)n(C)c2cc1CO` [Example 51, 2-(6-(hydroxymethyl)-5-methoxy-1-methyl-1H-imidazo[4,5-b]pyridin-2-yl)-5-(trifluoromethyl)phenol], for which, in assay [1] (setting [3]), the IC50 is < 100 nM.

In the case of `Cc1cc(C(F)(F)F)cc(O)c1-c1nc2nc(OC3CCN(C)C3)ncc2n1C` (racemic) [Example 55, 3-methyl-2-(7-methyl-2-((1-methylpyrrolidin-3-yl)oxy)-7H-purin-8-yl)-5-(trifluoromethyl)phenol], in assay [1] (setting [3]), the IC50 lay in the range of 100 to 1000 nM.

For `CC(C)n1c(-c2ccc(C(F)(F)F)cc2O)nc2nc(N[C@@H]3CCCN(C)C3)ccc21` [Example 13, (R)-2-(1-isopropyl-5-((1-methylpiperidin-3-yl)amino)-1H-imidazo[4,5-b]pyridin-2-yl)-5-(trifluoromethyl)phenol], the IC50 in assay [1] (setting [3]) was 100 to 1000 nM.

Turning to `CNc1ccc2cn(-c3ccc(C(F)(F)F)cc3O)nc2n1` [Example 41, 2-[6-(methylamino)pyrazolo[3,4-b]pyridin-2-yl]-5-(trifluoromethyl)phenol], the IC50 in assay [1] (setting [3]) was in the range of 100 to 1000 nM.

Consider `Cn1c(NCCO)nc2nc(-c3ccc(C(F)(F)F)cc3O)ccc21` [Example 82, 2-(2-((2-hydroxyethyl)amino)-1-methyl-1H-imidazo[4,5-b]pyridin-5-yl)-5-(trifluoro-methyl)phenol], for which the IC50 in assay [1] (Homo sapiens, 3 h, Table 8 (formula II′/II vs formula III)) was > 1500 nM.

Consider `CN1CCC[C@@H](Nc2ccc3cn(-c4ccc(C(F)(F)F)cc4O)nc3n2)C1` [Example 40, (R)-2-(6-((1-methylpiperidin-3-yl)amino)-2H-pyrazolo[3,4-b]pyridin-2-yl)-5-(trifluoromethyl)phenol formate], for which the IC50 in assay [1] (setting [3]) was < 100 nM.

As to `Cc1cc(C(F)(F)F)cc(O)c1-c1nc2nc(NC3CCCC3O)ccc2n1C` (stereo not shown) [Example 36], the IC50 in assay [1] (setting [4]) was 100 to 1000 nM.

Turning to `Oc1cc(C(F)(F)F)ccc1-n1cc2ccc(OC(F)(F)F)nc2n1` [Example 45, 2-[6-(trifluoromethoxy)pyrazolo[3,4-b]pyridin-2-yl]-5-(trifluoromethyl)phenol], the IC50 in assay [1] (setting [3]) is 100 to 1000 nM.

With `Cc1cc(Cl)cc(O)c1-c1nc2nc(N3CCOCC3)cnc2n1C` [Example 66, 5-chloro-3-methyl-2-(1-methyl-5-morpholino-imidazo[4,5-b]pyrazin-2-yl)phenol], the IC50 in assay [1] (setting [3]) was < 100 nM.

Regarding `COc1nc2nc(-c3c(C)cc(C(F)(F)F)cc3O)n(C)c2cc1CO` [Example 52, 2-(6-(hydroxymethyl)-5-methoxy-1-methyl-1H-imidazo[4,5-b]pyridin-2-yl)-3-methyl-5-(trifluoromethyl)phenol], the IC50 in assay [1] (setting [3]) was < 100 nM.

Regarding `Cc1cc(C(F)(F)F)cc(O)c1-c1nc2nc(NC3CCN(C)C3)ccc2n1C` (single isomer, unassigned) [Example 18A, 3-methyl-2-(1-methyl-5-((1-methylpyrrolidin-3-yl)amino)-1H-imidazo[4,5-b]pyridin-2-yl)-5-(trifluoromethyl)phenol], the IC50 in assay [1] (setting [3]) is < 100 nM.

As for `CC(C)n1c(-c2ccc(C(F)(F)F)cc2O)nc2nc(NCCO)ccc21` [Example 17, 2-(5-((2-hydroxyethyl)amino)-1-isopropyl-1H-imidazo[4,5-b]pyridin-2-yl)-5-(trifluoromethyl)phenol], the IC50 in assay [1] (setting [3]) lay in the range of 100 to 1000 nM.

On to `Cc1cc(Cl)cc(O)c1-c1nc2nc(N3CCOCC3)c(F)cc2n1C` [Example 64, 5-chloro-2-(6-fluoro-1-methyl-5-morpholino-1H-imidazo[4,5-b]pyridin-2-yl)-3-methylphenol], for which, in assay [1] (setting [3]), the IC50 is 100 to 1000 nM.

In the case of `Cn1c(-c2ccc(C(F)(F)F)cc2O)nc2nc(NCC3(O)COC3)ccc21` [Example 54, 3-(((2-(2-hydroxy-4-(trifluoromethyl)phenyl)-1-methyl-1H-imidazo[4,5-b]pyridin-5-yl)amino)methyl)oxetan-3-ol], the IC50 in assay [1] (setting [3]) fell in the range of 100 to 1000 nM.
